For four compounds, logD results are on record in the SangsterLogP compilation.

Usually logD stands for lipophilicity at a set pH, counting ionised and neutral species. Low readings indicate a more hydrophilic compound, high ones a more lipophilic compound.

A short description of the series: method code SF-AS, from DOI: 10.2298/jsc0810967p. The settings on record: pH 7.4.

`COc1cccc(Cn2cnc3cc(C)c(C)cc32)c1` came in with a pH-dependent lipophilicity (logD) of 4.28. Turning to `Cc1cc2ncn(Cc3cccc(F)c3)c2cc1C`, the logD was 4.5. In turn, `Cc1cc2ncn(Cc3cccc(Cl)c3)c2cc1C` showed a logD of 5.05. Turning to `Cc1cccc(Cn2cnc3cc(C)c(C)cc32)c1`, the logD was found to be 4.85.
